Read-outs that look alike come from different tables or passages of the source.
Molecular target: T1, androgen receptor (AR) (Homo sapiens, UniProt P10275)
T1 sequence (P10275 1-920): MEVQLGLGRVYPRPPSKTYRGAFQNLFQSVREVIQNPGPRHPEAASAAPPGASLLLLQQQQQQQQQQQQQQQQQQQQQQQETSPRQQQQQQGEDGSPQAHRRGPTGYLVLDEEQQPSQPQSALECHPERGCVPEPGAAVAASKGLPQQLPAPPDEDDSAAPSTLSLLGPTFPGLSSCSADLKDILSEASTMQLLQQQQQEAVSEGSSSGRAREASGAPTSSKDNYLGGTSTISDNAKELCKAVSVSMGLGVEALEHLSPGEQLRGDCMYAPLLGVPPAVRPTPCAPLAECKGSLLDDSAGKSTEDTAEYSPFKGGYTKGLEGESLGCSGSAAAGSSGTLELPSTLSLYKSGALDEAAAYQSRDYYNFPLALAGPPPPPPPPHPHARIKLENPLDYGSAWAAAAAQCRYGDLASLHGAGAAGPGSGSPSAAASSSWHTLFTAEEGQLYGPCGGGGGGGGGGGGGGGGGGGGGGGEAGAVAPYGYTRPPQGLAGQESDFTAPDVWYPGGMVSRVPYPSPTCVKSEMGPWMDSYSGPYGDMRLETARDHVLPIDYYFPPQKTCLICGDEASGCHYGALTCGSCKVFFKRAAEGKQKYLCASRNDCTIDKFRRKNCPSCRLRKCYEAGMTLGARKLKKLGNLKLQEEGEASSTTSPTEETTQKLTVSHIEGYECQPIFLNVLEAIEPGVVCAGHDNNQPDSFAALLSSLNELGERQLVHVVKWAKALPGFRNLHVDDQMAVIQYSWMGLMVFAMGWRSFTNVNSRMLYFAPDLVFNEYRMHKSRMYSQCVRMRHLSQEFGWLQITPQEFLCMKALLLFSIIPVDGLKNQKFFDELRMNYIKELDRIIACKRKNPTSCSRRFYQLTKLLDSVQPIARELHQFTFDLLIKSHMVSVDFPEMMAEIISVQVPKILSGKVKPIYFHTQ
Assay: Degradation of androgen receptor (AR) protein in VCaP cells by ELISA
Assay type: cell-based
Conditions: for Dmax: VCaP

[1] = AR degradation, VCaP cells, 16 h, ELISA, Table 3-1, read-out: DC50
[2] = AR degradation, VCaP cells, 16 h, ELISA, Table 3-1, read-out: Dmax (%)

Structure (SMILES)	Dmax (%) (AR degradation, VCaP cells, 16 h, ELISA, Table 3-1)	DC50 [1] [nM]	Dmax [2] [%]	DC50 [nM]	Dmax [%]
N#Cc1ccc(OC2CCC(NC(=O)c3ncn(C4CCC(CN5CCC6(CC5)CN(c5cc7c(cc5F)C(=O)N(C5CCC(=O)NC5=O)C7=O)C6)CC4)n3)CC2)cc1Cl [Compound 85, N-((1r,4R)-4-(3-chloro-4-cyanophenoxy)cyclohexyl)-1-((1r,4R)-4-((2-(2,6-dioxopiperidin-3-yl)-6-fluoro-1,3-dioxoisoindolin-5-yl)-2,7-diazaspiro[3.5]nonan-7-yl)methyl)cyclohexyl)-1H-1,2,4-triazole-3-formamide]	++++ (>80%)	10 to 100	–	–	–
N#Cc1ccc(O[C@H]2CC[C@H](NC(=O)c3ccc(N4CCN(C5CC6(CCN(c7ccc8c(c7)C(=O)N(C7CCC(=O)NC7=O)C8=O)CC6)C5)CC4)nn3)CC2)cc1Cl (stereo partly drawn) [Compound 271, N-((1r,4r)-4-(3-chloro-4-cyanophenoxy)cyclohexyl)-6-(4-(7-(2-(2,6-dioxopiperidin-3-yl)-1,3-dioxoisoindolin-5-yl)-7-azaspiro[3.5]nonan-2-yl)piperazin-1-yl)pyridazine-3-formamide]	–	< 10	> 80	–	–
N#Cc1ccc(O[C@H]2CC[C@H](NC(=O)c3ncc(N4CCC(CN5CCC6(CC5)CN(c5ccc7c(c5)C(=O)N(C5CCC(=O)NC5=O)C7=O)C6)CC4)cn3)CC2)cc1Cl (stereo partly drawn) [Compound 149]	–	–	–	> 300	< 40
CC1(C)[C@H](Oc2ccc(C#N)c(Cl)c2)C(C)(C)[C@H]1N1Cc2nc(C#CC3CCC(N4CC5CC4CN5c4cc5c(cc4F)C(=O)N(C4CCC(=O)NC4=O)C5=O)CC3)ccc2C1=O (stereo partly drawn) [Compound 343]	–	> 300	40 to 60	–	–

The next lines start with results.

Dmax (%) (AR degradation, VCaP cells, 16 h, ELISA, Table 3-1)	DC50 [1] [nM]	Dmax [2] [%]	Structure (SMILES)	DC50 [nM]	Dmax [%]
–	< 10	> 80	N#Cc1ccc(O[C@H]2CC[C@H](NC(=O)c3cnc(N4CCC(CN5CC6(CCN(c7cc8c(cc7F)C(=O)N(C7CCC(=O)NC7=O)C8=O)C6)C5)CC4)cn3)CC2)cc1Cl (stereo partly drawn) [Compound 188, N-((1r,4r)-4-(3-chloro-4-cyanophenoxy)cyclohexyl)-5-(4-((6-(2-(2,6-dioxopiperidin-3-yl)-6-fluoro-1,3-dioxoisoindolin-5-yl)-2,6-diazaspiro[3.4]octan-2-yl)methyl)piperidin-1-yl)pyrazine-2-carboxamide]	–	–
–	< 10	> 80	N#Cc1ccc(O[C@H]2CC[C@H](NC(=O)c3cnc(N4CC5(CCN(C6CCN(c7cc8c(cc7F)C(=O)N(C7CCC(=O)NC7=O)C8=O)CC6)CC5)C4)cn3)CC2)cc1Cl (stereo partly drawn) [Compound 242, N-((1r,4r)-4-(3-chloro-4-cyanophenoxy)cyclohexyl)-5-(7-(1-(2-(2,6-dioxopiperidin-3-yl)-6-fluoro-1,3-dioxoisoindolin-5-yl)piperidine-4-yl)-2,7-diazaspiro[3.5]nonan-2-yl)pyrazine-2-carboxamide]	–	–
–	< 10	> 80	N#Cc1ccc(O[C@H]2CC[C@H](NC(=O)c3ccc(N4CCC5(CC4)CN(CC4CCN(c6cc7c(cc6F)C(=O)N(C6CCC(=O)NC6=O)C7=O)CC4)C5)nn3)CC2)cc1Cl (stereo partly drawn) [Compound 75]	–	–
–	< 10	> 80	N#Cc1ccc(O[C@H]2CC[C@H](NC(=O)c3cnc(N4CCC(N5CCC6(CC5)CN(c5cc7c(cc5F)C(=O)N(C5CCC(=O)NC5=O)C7=O)C6)CC4)cn3)CC2)cc1Cl (stereo partly drawn) [Compound 287, N-((1r,4r)-4-(3-chloro-4-cyanophenoxy)cyclohexyl)-5-(4-(2-(2-(2,6-dioxopiperidin-3-yl)-6-fluoro-1,3-dioxoisoindolin-5-yl)-2,7-diazaspiro[3.5]nonan-7-yl)piperidin-1-yl)pyrazine-2-carboxamide]	–	–
–	< 10	> 80	N#Cc1ccc(O[C@H]2CC[C@H](NC(=O)c3cnc(N4CCC(CN5CCC6(C5)CN(c5ccc7c(c5)C(=O)N(C5CCC(=O)NC5=O)C7=O)C6)CC4)cn3)CC2)cc1Cl (stereo partly drawn) [Compound 187, N-((1r,4r)-4-(3-chloro-4-cyanophenoxy)cyclohexyl)-5-(4-((2-(2-(2,6-dioxopiperidin-3-yl)-1,3-dioxoisoindolin-5-yl)-2,6-diazaspiro[3.4]octan-6-yl)methyl)piperidin-1-yl)pyrazine-2-carboxamide]	–	–
